# Measurements as given in patent publication EP4755886A1 (Chengdu Chipscreen Pharmaceutical Ltd., priority 2023, dated 2025).
# Tests used:
# MTAP^-/- HCT-116 cells = assay: Cell proliferation (MTS), MTAP-/- HCT-116; type: cell-based, human; settings: for Selectivity: HCT116 WT IC50 relative to HCT116 MTAP-/- IC50; for IC50: Homo sapiens, 240 h, MTAP-/- HCT-116, 10 days with compound, MTS reading, read-out: IC50 HCT116 MTAP-/-
# Outline: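 MTAP-/- (CRISPR/Cas9 biallelic knockout) or wild-type HCT-116 cells seeded at 100 cells/well, treated next day with 8-point 3-fold dilutions (top 20 µM) for 10 days at 37 °C, 5% CO2. Viability read by MTS; IC50 from four-parameter logistic fit of inhibition rate vs log concentration.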
# wild-type HCT-116 cells = assay: Cell proliferation (MTS), wild-type HCT-116; type: cell-based; settings: Homo sapiens, 240 h; wild-type HCT-116, 10 days with compound, MTS reading; read-out: IC50 HCT116 WT
# Outline: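 Wild-type HCT-116 cells were seeded at 100 cells/well in McCoy's 5A/10% FBS. From day 1 they were treated with compound in 3-fold dilutions (initial 20 µM, 8 points) for 10 days at 37° C. Proliferation was read by MTS on day 11, and IC50 was obtained from a four-parameter logistic fit.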
# hERG = molecular target: T1, hERG (Homo sapiens, UniProt Q12809); assay: hERG test (Predictor hERG Fluorescence Polarization Assay Kit); type: binding; settings: for inhibition at 3.5 h, 10 µM: human, probe Predictor hERG Tracer Red, 10 µM test substance, three duplicate wells; for IC50: only 10 µM tested
# T1 construct: purchased ThermoFisher Scientific PV5365
# Procedure: Predictor™ hERG Fluorescence Polarization Assay Kit (ThermoFisher Scientific, PV5365).
# The procedures in the kit instructions were followed: 4× Predictor™ hERG Tracer Red, 4× E-4031, and 4× test substance solutions (final assay concentration: 10 µM) were prepared in advance. 5 µL Predictor™ hERG FP Assay Buffer and 5 µL Predictor™ hERG Membrane were added sequentially to the Assay Blank group in a 384-well plate. 2.5 µL Predictor™ hERG FP Assay Buffer, 2.5 µL of 4× E-4031, and 2.5 µL of 4× test substance were added to the negative control group, the positive control group, and the test substance group, respectively, and then 5 µL Predictor™ hERG Membrane and 2.5 µL of 4× Predictor™ hERG Tracer Red were sequentially added. The total volume of the experimental system was 10 µL, and three duplicate wells were set for each group. After loading, the plate was gently tapped to mix well and incubated at room temperature (25 °C) in the dark for 3.5 h. After the incubation was completed, the fluorescence polarization value mP was measured on a microplate reader, and G Factor was 2.14.
# The inhibition rate of the test substance was calculated using the following formula: [formula]
# PK experiment in mice = settings: female, BALB/c, mouse, plasma, po, 10 mg/kg
# T1 sequence (Q12809 whole entry): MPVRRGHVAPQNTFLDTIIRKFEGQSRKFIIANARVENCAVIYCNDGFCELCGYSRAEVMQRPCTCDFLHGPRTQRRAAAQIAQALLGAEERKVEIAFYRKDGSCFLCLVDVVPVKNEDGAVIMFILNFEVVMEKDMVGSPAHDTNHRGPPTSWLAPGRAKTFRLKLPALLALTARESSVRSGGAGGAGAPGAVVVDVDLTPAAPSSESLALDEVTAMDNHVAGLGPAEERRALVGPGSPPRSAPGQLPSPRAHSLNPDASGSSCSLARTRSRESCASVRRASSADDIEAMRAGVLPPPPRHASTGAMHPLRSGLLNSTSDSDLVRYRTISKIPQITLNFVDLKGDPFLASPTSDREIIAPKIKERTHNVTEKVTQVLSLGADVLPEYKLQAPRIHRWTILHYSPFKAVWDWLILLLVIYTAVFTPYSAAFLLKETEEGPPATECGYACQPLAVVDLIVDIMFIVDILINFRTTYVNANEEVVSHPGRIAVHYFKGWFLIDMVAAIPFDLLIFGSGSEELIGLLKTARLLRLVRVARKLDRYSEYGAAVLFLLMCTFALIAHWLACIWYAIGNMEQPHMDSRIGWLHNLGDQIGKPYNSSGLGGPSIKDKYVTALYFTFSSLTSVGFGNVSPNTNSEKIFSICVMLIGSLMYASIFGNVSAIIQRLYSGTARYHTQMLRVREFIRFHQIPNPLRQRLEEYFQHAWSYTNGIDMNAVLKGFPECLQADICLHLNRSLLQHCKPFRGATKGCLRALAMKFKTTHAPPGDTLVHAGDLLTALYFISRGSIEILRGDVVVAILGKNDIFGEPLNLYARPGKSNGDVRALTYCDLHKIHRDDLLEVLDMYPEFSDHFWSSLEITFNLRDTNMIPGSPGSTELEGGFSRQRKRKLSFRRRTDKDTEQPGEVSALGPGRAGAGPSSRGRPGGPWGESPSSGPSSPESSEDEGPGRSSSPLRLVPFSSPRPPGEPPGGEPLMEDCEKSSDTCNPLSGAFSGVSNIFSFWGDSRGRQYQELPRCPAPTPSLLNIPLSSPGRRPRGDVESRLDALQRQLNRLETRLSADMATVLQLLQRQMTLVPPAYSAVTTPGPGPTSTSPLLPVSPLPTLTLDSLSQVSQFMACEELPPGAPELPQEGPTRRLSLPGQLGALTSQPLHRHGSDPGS
Structure (SMILES),Selectivity (MTAP^-/- HCT-116 cells),IC50 (MTAP^-/- HCT-116 cells) [nM],IC50 (wild-type HCT-116 cells) [nM],"inhibition at 3.5 h, 10 µM (hERG) [%]",IC50 (hERG) [nM],AUC(0-t) (PK experiment in mice) [ng·h/mL],Cmax (PK experiment in mice) [ng/mL]
"CN(C(=O)c1cc2c3c(c(N)nc2cc1Cl)COC3)C1COc2cc(C#Cc3cnn(C)c3)ccc21 (stereo not shown) [Compound 40, 4-amino-7-chloro-N-methyl-N-(6-((1-methyl-1H-pyrazol-4-yl)ethynyl)-2,3-dihydrobenzofuran-3-yl)-1,3-dihydrofuro[3,4-c]quinoline-8-carboxamide]",252,5.8,1460,22,> 10000,–,–
"CN(C(=O)c1cc2c3c(c(N)nc2cc1Cl)COC3)[C@@H]1COc2cc(C#Cc3cnc4n3CCCC4)ccc21 [Compound 74A, (S)-4-amino-7-chloro-N-methyl-N-(6-((5,6,7,8-tetrahydroimidazo[1,2-a]pyridin-3-yl)ethynyl)-2,3-dihydrobenzofuran-3-yl)-1,3-dihydrofuro [3,4-c] quinoline-8-carb oxamide]",175,2.7,472,–,–,14500 ± 1760,2810 ± 780
"Cc1ncccc1C#Cc1ccc2c(c1)OCC2N(C)C(=O)c1cc2c(cc1F)nc(N)c1cnn(C)c12 (stereo not shown) [Compound 45, 4-amino-7-fluoro-N,1-dimethyl-N-(6-((2-methylpyridin-3-yl)ethynyl)-2,3-dihydrobenzofuran-3-yl)-1H-pyrazolo[4,3-c]quinoline-8-carboxamide]",111,5.9,654,21,> 10000,–,–
"CN(C(=O)c1cc2c3c(c(N)nc2cc1Cl)COC3)[C@@H]1COc2cc(C#Cc3cnc4n3CCC4)ccc21 [Compound 75A, (S)-4-amino-7-chloro-N-(6-((6,7-dihydro-5H-pyrrolo[1,2-a]imidazol-3-yl)ethynyl) -2,3-dihydrobenzofuran-3-yl)-N-methyl-1,3-dihydrofuro[3,4-c]quinoline-8-carbo xamide]",106,4,424,–,–,27000 ± 4260,5010 ± 846
"CN(C(=O)c1ccc2nc(N)c3cnn(C)c3c2c1)C1COc2cc(C#Cc3cnn(C(F)F)c3)ccc21 (stereo not shown) [Compound 30, 4-amino-N-(6-((1-(difluoromethyl)-1H-pyrazol-4-yl)ethynyl)-2,3-dihydrobenzofuran-3-yl)-N,1-dimethyl-1H-pyrazolo[4,3-c]quinoline-8-carboxamide]",201,8.7,1750,–,–,12600 ± 1360,984 ± 123
"CN(C(=O)c1cc2c3c(c(N)nc2cc1F)COC3)C1COc2cc(C#Cc3cnn(C)c3)ccc21 (stereo not shown) [Compound 39, 4-amino-7-fluoro-N-methyl-N-(6-((1-methyl-1H-pyrazol-4-yl)ethynyl)-2,3-dihydrobenzofuran-3-yl)-1,3-dihydrofuro[3,4-c]quinoline-8-carboxamide]",148,20,2960,23.8,> 10000,20900 ± 8400,2670 ± 180
"Cc1ncccc1C#Cc1ccc2c(c1)OC[C@H]2N(C)C(=O)c1cc2c3c(c(N)nc2cc1Cl)COC3 [Compound 57A, (S)-4-amino-7-chloro-N-methyl-N-(6-((2-methylpyridin-3-yl)ethynyl)-2,3-dihydrobenzofuran-3-yl)-1,3-dihydrofuro[3,4-c]quinoline-8-carboxamide]",125,8,1000,14.2 ± 18,> 10000,10500 ± 2400,1810 ± 195
"Cc1c(C#Cc2ccc3c(c2)OC[C@H]3N(C)C(=O)c2cc3c4c(c(N)nc3cc2Cl)COC4)cnn1C [Compound 52A, (S)-4-amino-7-chloro-N-(6-((1,5-dimethyl-1H-pyrazol-4-yl)ethynyl)-2,3-dihydrobenzofuran-3-yl)-N-methyl-1,3-dihydrofuro[3,4-c]quinoline-8-carboxamide]",152,3.2,487,10.4 ± 49.1,> 10000,14200 ± 2430,1500 ± 313
"CN(C(=O)c1cc2c3c(c(N)nc2cc1Cl)COC3)[C@@H]1COc2cc(C#Cc3cccnc3F)ccc21 [Compound 61A, (S)-4-amino-7-chloro-N-(6-((2-fluoropyridin-3-yl)ethynyl)-2,3-dihydrobenzofuran-3-yl)-N-methyl-1,3-dihydrofuro[3,4-c]quinoline-8-carboxamide]",91,7,640,–,–,22200 ± 2710,2080 ± 299
"CN1CCn2c(C#Cc3ccc4c(c3)OC[C@H]4N(C)C(=O)c3cc4c(cc3F)nc(N)c3cnn(C)c34)cnc2C1 [Compound 46A, (S)-4-amino-7-fluoro-N,1-dimethyl-N-(6-((7-methyl-5,6,7,8-tetrahydroimidazo[1,2-a]pyrazin-3-yl)ethynyl)-2,3-dihydrobenzofuran-3-yl)-1H-pyrazolo[4,3-c]quinoline-8-carboxamide]",144,1.1,158,43.9 ± 18.8,> 10000,–,–
"CN(C(=O)c1cc2c(cc1F)nc(N)c1cnn(C)c12)[C@@H]1COc2cc(C#Cc3cnn(C4CC4)c3)ccc21 [Compound 12A, (S)-4-amino-N-(6-((1-cyclopropyl-1H-pyrazol-4-yl)ethynyl)-2,3-dihydrobenzofuran-3-yl)-7-fluoro-N,1-dimethyl-1H-pyrazolo[4,3-c]quinoline-8-carboxamide]",115,3.7,426,22.4,> 10000,26900 ± 7450,2670 ± 421
"CN(C(=O)c1cc2c3c(c(N)nc2cc1Cl)COC3)[C@@H]1COc2cc(Br)ccc21 [Reference Example 4, reference compound]",–,–,–,–,–,3270 ± 588,649 ± 45
"CCn1cc(C#Cc2ccc3c(c2)OCC3N(C)C(=O)c2cc3c(cc2F)nc(N)c2cnn(C)c23)cn1 (stereo not shown) [Compound 17, 4-amino-N-(6-((1-ethyl-1H-pyrazol-4-yl)ethynyl)-2,3-dihydrobenzofuran-3-yl)-7-f luoro-N,1-dimethyl-1H-pyrazolo[4,3-c]quinoline-8-carboxamide]",58,7,405,–,–,–,–
"CN(C(=O)c1cc2c(cc1F)nc(N)c1cnn(C)c12)C1COc2cc(C#Cc3cnn(C)c3)ccc21 (stereo not shown) [Compound 5, 4-amino-7-fluoro-N,1-dimethyl-N-(6-((1-methyl-1H-pyrazol-4-yl)ethynyl)-2,3-dihydrobenzofuran-3-yl)-1H-pyrazolo[4,3-c]quinoline-8-carboxamide]",97,6,584,–,–,–,–
"Cc1cncc(C#Cc2ccc3c(c2)OC[C@H]3N(C)C(=O)c2cc3c(cc2Cl)nc(N)c2cnn(C)c23)c1 [Compound 65A, (S)-4-amino-7-chloro-N,1-dimethyl-N-(6-((5-methylpyridin-3-yl)ethynyl)-2,3-dihydrobenzofuran-3-yl)-1H-pyrazolo[4,3-c]quinoline-8-carboxamide]",71,2,141,–,–,–,–
"CN(C(=O)c1cc2c(cc1F)nc(N)c1cnn(C)c12)[C@@H]1COc2cc(C#Cc3cnn(C4CCC4)c3)ccc21 [Compound 89A, (S)-4-amino-N-(6-((1-cyclobutyl-1H-pyrazol-4-yl)ethynyl)-2,3-dihydrobenzofuran-3-yl)-7-fluoro-N,1-dimethyl-1H-pyrazolo [4,3-c] quinoline-8-carboxamide]",88,3,263,–,–,–,–
"CN(C(=O)c1ccc2nc(N)c3cnn(C)c3c2c1)C1COc2cc(C3CC3)ccc21 (stereo not shown) [Reference Example 3, reference compound]",–,–,–,–,–,5130 ± 2920,741 ± 601
"Cc1ccc(C#Cc2ccc3c(c2)OC[C@H]3N(C)C(=O)c2cc3c4c(c(N)nc3cc2Cl)COC4)cn1 [Compound 58A, (S)-4-amino-7-chloro-N-methyl-N-(6-((6-methylpyridin-3-yl)ethynyl)-2,3-dihydrobenzofuran-3-yl)-1,3-dihydrofuro[3,4-c]quinoline-8-carboxamide]",234,9.5,2220,–,–,–,–
